According to US9215877B2, “Compositions including a vacancy-engineered(VE)-ZnO nanocomposite, methods of making a composition , method of using a composition” (priority 2014, dated 2015):

System: E. coli
Assay: Minimum inhibitory concentration (MIC) against E. coli
Assay type: cell-based
Conditions: Escherichia coli, read-out: MIC (μg/mL) in metallic Zn or Cu

`O=C([O-])c1ccccc1O.[Na+]` [Capping Agent, sodium salicylate] gave an MIC of 3000 µg/mL.
